Test results as given in patent publication EP0363836A2, “Use of homopiperazines in the preparation of a medicament for preventing or treating organ rejection reactions” (BEHRINGWERKE Aktiengesellschaft, priority 1988, dated 1990).

Assays:
Fischer-Ratten = experiment: Rat tail skin transplantation, Lewis donor to Fischer recipient: graft survival time; format: in vivo; settings: d0-9, mean ± s of 5 animals
Text: (§1) In einem Experimentalansatz wurden Schwanzhautstückchen von Lewis Ratten mit einer Größe von etwa 0.5 x 1.0 cm auf den Schwanz von Fischer Ratten verpflanzt. In einem weiteren Modell wurde die Schwanzhaut von DA Ratten auf Lewis Ratten transplantiert. Die transplantierten Hautstücke werden vom Immunsystem der Empfängertiere als fremd erkannt und abgestoßen. Wie in Tabelle I zu sehen ist, betrug die Transplantüberlebenszeit im Lewis-Fischer-Rattenmodell in den Kontrollgruppen, die nur mit dem Lösungsmittel behandelt wurden zwischen 16 und 18 Tagen. Die Verbindung der Formel I mit R₁ = H wurde in verschiedenen Konzentrationen (1, 5, 10, 20 und 40 mg/kg Körpergewicht pro Injektion) an 10 aufeinanderfolgenden Tagen, beginnend mit dem Tag der Transplantation, entweder oral oder intraperitoneal verabreicht. Hierbei zeigt sich, daß sich durch verschiedene Konzentrationen der Substanz die Überlebenszeiten der Transplantate dosisabhängig von 15.8 ± 2.4 auf 26.8 ± 1.3 bzw. 18.4 ± 1.5 auf 28.4 ± 1.1 erhöhen ließen, wobei 10 mg/kg eine optimal wirksame Dosis zu sein scheinen.

Lewis Ratten = experiment: Rat tail skin transplantation, DA donor to Lewis recipient: graft survival time; format: in vivo; settings: d0-9, mean ± s of 5 animals, * p 0.001
Text: as §1
Auch im anderen Transplantationsmodell mit DA Ratten (Spender) und Lewis Ratten (Empfänger) kommt es zu einer Verlängerung der Transplantatüberlebenszeiten durch die Gabe von Homopiperazinen. Hier stoßen die nur mit dem Lösungsmittel behandelten Kontrolltiere das Transplantat ca. am Tag 12 ab. Durch die Behandlung (p.o. oder i.p. […]

CC(C)(C)c1cc(C(=O)N2CCCNCC2)cc(C(C)(C)C)c1O [Verbindung der Formel I mit R¹ = H]
Tage bis zur Abstoßung (x ± s) (Fischer-Ratten; 1 mg/kg, 10xip): (22.8 ± 2.2) Tage
Tage bis zur Abstoßung (x ± s) (Fischer-Ratten; 1 mg/kg, 10xpo): (21.6 ± 1.3) Tage
Tage bis zur Abstoßung (x ± s) (Fischer-Ratten; 5 mg/kg, 10xip): (25.0 ± 2.6) Tage
Tage bis zur Abstoßung (x ± s) (Fischer-Ratten; 5 mg/kg, 10xpo): (25.2 ± 0.8) Tage
Tage bis zur Abstoßung (x ± s) (Fischer-Ratten; 10 mg/kg, 10xip): (26.8 ± 1.3) Tage
Tage bis zur Abstoßung (x ± s) (Fischer-Ratten; 10 mg/kg, 10xip, listed as Verbindung der Formel I mit R₁ = H): 26.8 ± 1.3 Tage
Tage bis zur Abstoßung (x ± s) (Fischer-Ratten; 10 mg/kg, 10xpo): (28.4 ± 1.1) Tage
Tage bis zur Abstoßung (x ± s) (Fischer-Ratten; 10 mg/kg, 10xpo, listed as Verbindung der Formel I mit R₁ = H): 28.4 ± 1.1 Tage
Tage bis zur Abstoßung (x ± s) (Fischer-Ratten; 20 mg/kg, 10xip): (25.2 ± 1.6) Tage
Tage bis zur Abstoßung (x ± s) (Fischer-Ratten; 20 mg/kg, 10xpo): (26.8 ± 0.8) Tage
Tage bis zur Abstoßung (x ± s) (Fischer-Ratten; 40 mg/kg, 10xip): (22.4 ± 2.4) Tage
Tage bis zur Abstoßung (x ± s) (Fischer-Ratten; 40 mg/kg, 10xpo): (24.6 ± 2.0) Tage
Tage bis zur Abstoßung (x ± s) (Lewis Ratten; 5 mg/kg, 5xip): (16.0 ± 1.2)* Tage
Tage bis zur Abstoßung (x ± s) (Lewis Ratten; 10 mg/kg, 5xip): (16.6 ± 1.8)* Tage
Tage bis zur Abstoßung (x ± s) (Lewis Ratten; 10 mg/kg, 10xpo): (16.6 ± 0.6)* Tage
Tage bis zur Abstoßung (x ± s) (Lewis Ratten; 25 mg/kg, 5xip): (17.8 ± 0.8)* Tage
Tage bis zur Abstoßung (x ± s) (Lewis Ratten; 25 mg/kg, 10xpo): (17.4 ± 0.6)* Tage
Tage bis zur Abstoßung (x ± s) (Lewis Ratten; 50 mg/kg, 5xip): (19.6 ± 1.8)* Tage
Tage bis zur Abstoßung (x ± s) (Lewis Ratten; 50 mg/kg, 10xpo): (18.6 ± 1.1)* Tage
